Measured values taken from publication PMC11435625, “In Vitro Hepatic Clearance Evaluations of Per- and Polyfluoroalkyl Substances (PFAS) across Multiple Structural Categories” (Toxics, 2024).

Key:
[1] = tested on: pooled primary human hepatocyte suspensions; experiment: Bayesian (MCMC, invitroTKstats) analysis of hepatic clearance data; conditions: Level-4 Bayesian estimate, posterior median; Clint.1 series (Clint.10 all NA)
Text: Markov Chain Monte Carlo was employed in a Bayesian analysis to estimate uncertainty of the hepatic clearance point measures as previously described, but with some modifications [10]. Briefly, after organizing PFAS-level data into a single file, the relationship between the relevant measurement process parameters was described in a graphic model in JAGS language [13] interfaced through R. For hepatic clearance data, the model describes the PFAS-specific mass spectrometric response factor between analyte peak ratio (to internal standard) and chemical concentration. […] The assumed prior for whether the chemical degraded abiotically in vitro followed a Bernoulli distribution with a 5% chance of abiotic degradation. Separate biotic and abiotic components for chemical elimination were estimated, each with a slope following an assumed uniform prior distribution bounded between the zero and the -log (limit of quantitation/Ctest). In scenarios where an external calibration without internal standard was used, the response factor was calculated using the analyte peak alone, introducing additional uncertainty due to the inability to normalize for recovery issues. The model was analyzed jointly by JAGS using five Markov chains. Convergence was identified by requiring the five chains to be consistent, as indicated by the potential scale reduction factor [14] being less than 1.1. The analysis was performed using EPA-developed R package invitroTKstats, available upon request.

[2] = IVIVE: steady-state concentration (Css), generic HTTK model; design: species or system human; conditions: for Css (mg/L) / Css (uM): Assuming 1 mg/kg/day dose rate, BW 70 kg; for CLhep: QL 1500000 uL/min; for Fub: fub=fup/(B:P), Fub set to 1 if needed; for CLint: scaled to whole liver: HPGL 110 mill cells/g, Vl 1596 g
Method: IVIVE was performed as previously described to calculate human steady-state concentrations (Css). Briefly, experimental plasma protein binding data presented elsewhere were transformed to fraction unbound in blood using blood-to-plasma partitioning values. Experimental Clint values generated here are used in conjunction with relevant liver scalars to scale up to estimate whole liver clearance. […] Once Css values were established, these were used with the PFAS-specific in vitro POD data to calculate the administered equivalent doses (AEDs) using reverse dosimetry. […] The fifth-percentile AC50 value was used to define the in vitro POD. All relevant inputs, scalars, and calculations are provided in Supplementary Information, as indicated in the results.

[3] = tested on: pooled primary human hepatocyte suspensions; experiment: Hepatic clearance assay (substrate depletion, LC-MS); conditions: in µL/min/10^6 cells; for CLint for HTTK: CLint value carried into HTTK/IVIVE
Method: The rate of hepatic clearance was determined as previously described for a set of PFAS [11]. Analysis was conducted across two laboratories at the Division of Translational Toxicology (DTT) at the National Institute of Environmental Health Sciences (NIEHS) and the Center for Computational Toxicology and Exposure at the USEPA. The PFAS analyzed in each lab can be found in the Supplementary Materials.
The hepatic clearance assay was performed at both the DTT and EPA laboratories as described below. The pooled human hepatocyte suspensions used in this work were purchased commercially and meet the ethical and scientific standards described in the Human Ethics Rule (40 CFR 26). The suspensions were prepared from hepatocytes obtained from de-identified donors by a commercial vendor.
PFAS stock solutions prepared in DMSO were added to prewarmed William’s E medium to make a 2X working stock solution (2 µM). […] The working stock solutions were then transferred to a 96-well polypropylene plate and placed in an incubator at 37 °C with 5% carbon dioxide prior to adding cells. Cryopreserved pooled primary human hepatocyte suspensions (50-donor pool, mixed gender; BioIVT; Westbury, NY, USA) were thawed and transferred to vials containing hepatocyte thawing medium. After centrifuging for 5–10 min at 100× g, thawing medium was removed, being careful not to disturb the cell pellet. The primary human hepatocytes were then resuspended in pre-warmed complete Williams E medium to achieve a cell density of ~1.0 × 10^6 viable cells/mL as determined by Trypan Blue exclusion. Cells were then added to the 96-well incubation plates containing PFAS to achieve a final density of ~0.5 × 10^6 viable cells/mL and a 1 μM assay concentration (Ctest), then placed in incubator on a shaker at 300 rpm. Triplicate samples were removed from the incubator at time points ranging from 0 to 240 min and quenched with a total crash in 2–3 volumes of ice-cold acetonitrile. Samples were spun at 4000× g for 20 min, and supernatants were transferred to new tubes and stored at <−70 °C until analysis. Media-only (no cell) and/or heat-inactivated hepatocytes were included as negative controls for each chemical to evaluate and estimate chemical loss due to nonmetabolic processes (e.g., hydrolysis). Phenacetin was included in all runs as an assay reference compound; EPA also included propranolol as an additional reference compound.
Assay samples were diluted in mobile phase and analyzed using a Thermo Vanquish UPLC system with a Thermo Hypersil Gold aQ C18 column (100 × 2.1 mm, 1.9 […], Thermo Fisher Scientific Inc.) coupled to a Q Exactive Plus mass spectrometer. Gradient elution was used in the chromatographic separations using water with 20 mM ammonium acetate (mobile phase A) and methanol (mobile phase B), with the following gradient program: 0.5–7 min, 30%–90% B; 7–8 min, 90% B; 8–9 min, 90%–30% B; and 9–10 min, 30% B. The first minute of each injection was diverted to waste to avoid introduction of excessive salts from incubation medium. Analysis was detected in negative ion mode. Samples were quantified against an external, matrix-matched calibration curve. Additional methodologic information is available in Table S2.
To perform SPE, a positive-pressure manifold was employed along with Oasis WAX µElution plates and Oasis HLB 30 mg plates (Waters, Milford, MA, USA) for PFAS and positive-control extraction, respectively. […] The sorbent was then washed with 1% formic acid and water. Samples were eluted in 2% ammonia in methanol for analysis. Similarly, HLB plates were conditioned with methanol and water before sample was loaded onto the sorbent. The wells were then washed with 5% methanol in water and water before elution in methanol. For samples not undergoing SPE, the supernatant of the crashed assay sample was diluted in mobile phase prior to analysis. The first 1.5 min of the run was diverted to waste to prevent salt contamination.

plasma protein = conditions: fraction unbound in plasma, input for IVIVE calculations; cited from earlier work
[4] = pooled primary human hepatocyte suspensions

Compound | Clint.1.Med [1] | Css (mg/L) [2] | Css (uM) [2] | CLhep [2] | Fub [2] | CLint [2] | CLint for HTTK [3] | in vitro CLint exp assay [3, 4] | Mean fu (plasma protein) | Unadj Clint ([3]; unadjusted hepatic intrinsic clearance, pooled primary human hepatocyte suspensions, Table S4)
O=S(=O)(OCC(F)(F)F)C(F)(F)C(F)(F)C(F)(F)C(F)(F)F | 0 |  |  |  |  |  |  |  |  | 
O=C(Cl)C(F)(F)C(F)(F)C(F)(F)C(F)(F)C(F)(F)C(F)(F)F [Perfluoroheptanoyl chloride (PFHpA-Cl)] |  | 180.82 mg/L | 473.43 µM | 0.000 L/h | 0.002427 | 0 µL/min | 0 | 0 | 0.0017 | 
NS(=O)(=O)C(F)(F)C(F)(F)C(F)(F)C(F)(F)C(F)(F)C(F)(F)F [Perfluorohexanesulfonamide (PFHxSA)] |  | 603.36 mg/L | 1512.33 µM | 0.000 L/h | 0.0007273 | 0 µL/min | 0 | 0 | 0.0004 | 
O=S(=O)(O)C(F)(F)C(F)(F)C(F)(F)C(F)(F)C(F)(F)C(F)(F)F [Perfluorohexanesulfonic acid (PFHxS)] |  | 268.16 mg/L | 670.49 µM | 0.000 L/h | 0.001636 | 0 µL/min | 0 | 0 | 0.0009 | 
O=C(O)C(F)(F)C(F)(F)C(F)(F)C(F)(F)C(F)(F)C(F)(F)C(F)(F)C(F)(F)F [Perfluorononanoic acid (PFNA)] |  | 150.84 mg/L | 325.11 µM | 0.000 L/h | 0.002909 | 0 µL/min | 0 | 0 | 0.0016 | 
NS(=O)(=O)C(F)(F)C(F)(F)C(F)(F)C(F)(F)C(F)(F)C(F)(F)C(F)(F)C(F)(F)F [Perfluorooctane sulfonamide (PFOSA)] |  | 2.16 mg/L | 4.33 µM | 1.313 L/h | 0.007091 | 3131990 µL/min | 17.84 | 17.84 | 0.0039 | 
O=S(=O)(O)C(F)(F)C(F)(F)C(F)(F)C(F)(F)C(F)(F)C(F)(F)C(F)(F)C(F)(F)F [Perfluorooctane sulfonate (PFOS)] |  | 49.25 mg/L | 98.52 µM | 0.000 L/h | 0.008909 | 0 µL/min | 0 | 0 | 0.0049 | 
O=S(=O)(O)C(F)(F)C(F)(F)C(F)(F)C(F)(F)C(F)(F)C(F)(F)C(F)(F)C(F)(F)F [Perfluorooctanesulfonate (PFOS-)] |  | 51.35 mg/L | 102.71 µM | 0.000 L/h | 0.008545 | 0 µL/min | 0 | 0 | 0.0047 | 
O=C(O)C(F)(F)C(F)(F)C(F)(F)C(F)(F)C(F)(F)C(F)(F)C(F)(F)F [Perfluorooctanoic acid (PFOA)] |  | 241.34 mg/L | 582.99 µM | 0.000 L/h | 0.001818 | 0 µL/min | 0 | 0 | 0.001 | 
O=C(O)C(F)(F)C(F)(F)C(F)(F)C(F)(F)F [Perfluoropentanoic acid (PFPeA)] |  | 5.49 mg/L | 20.78 µM | 0.000 L/h | 0.08 | 0 µL/min | 0 | 0 | 0.044 | 
O=C(O)C(F)(F)C(F)(F)F [Perfluoropropanoic acid (PFPrA)] |  | 0.78 mg/L | 4.74 µM | 0.000 L/h | 0.5651 | 0 µL/min | 0 | 0 | 0.3108 | 
O=C(O)C(F)(F)C(F)(F)C(F)(F)C(F)(F)C(F)(F)C(F)(F)C(F)(F)C(F)(F)C(F)(F)C(F)(F)C(F)(F)C(F)(F)C(F)(F)F [Perfluorotetradecanoic acid (PFTeA)] |  | 8.91 mg/L | 12.47 µM | 0.000 L/h | 0.04927 | 0 µL/min | 0 | 0 | 0.0271 | 
O=C(O)C(F)(F)C(F)(F)C(F)(F)C(F)(F)C(F)(F)C(F)(F)C(F)(F)C(F)(F)C(F)(F)C(F)(F)C(F)(F)C(F)(F)F [Perfluorotridecanoic acid] |  | 5.57 mg/L | 8.39 µM | 0.000 L/h | 0.07873 | 0 µL/min | 0 | 0 | 0.0433 | 0.00
O=S(=O)([O-])C(F)(F)C(F)(F)C(F)(F)C(F)(F)C(F)(F)C(F)(F)C(F)(F)C(F)(F)C(F)(F)C(F)(F)F.[Na+] [Sodium perfluorodecanesulfonate (NaPFDS)] |  | 4.57 mg/L | 7.62 µM | 0.000 L/h | 0.096 | 0 µL/min | 0 | 0.00 | 0.0528 | 
